Assay results published in patent publication US12246076B2, “Radiolabeled compounds for in vivo imaging of gastrin-releasing peptide receptor (GRPR) and treatment of GRPR-related disorders” (PROVINCIAL HEALTH SERVICES AUTHORITY, priority 2022, dated 2025).
Numbered stars: 1 amine (or outer) side, 2 acyl side, 3 side chain; on linkers, the order of the positions; unused ones are H or OH. Square brackets hold non-standard residues; d marks the D form. Peptide text beside a SMILES is read from it. * marks the point of attachment. DOTA = O=C(O)CN1CCN(CC(=O)O)CCN(CC(=O)*)CCN(CC(=O)O)CC1; Leuψ(CH2N)ThzNH2 = CC(C)C[C@@H](CN1CSC[C@H]1C(N)=O)N*; X1 = O=C(CN1CCC(N[*:1])CC1)[*:2]

Columns and labels:
[1] = Ex vivo biodistribution in PC-3 tumor-bearing mice; settings: male, NRG, mouse, iv, total radioactivity, 1 h post-injection, mice bearing PC-3 tumor xenografts, n = 4
Procedure: (§1) All imaging and biodistribution studies were performed using male NOD.Cg-Rag1^tm1MoM II2rg^tm1WI/SzJ (NRG) mice and conducted according to the guidelines established by the Canadian Council on Animal Care and approved by Animal Ethics Committee of the University of British Columbia. For tumor inoculations, mice were anesthetized by inhalation with 2% isoflurane in oxygen and implanted subcutaneously with 5×10^6 PC-3 cells below the left shoulder. Imaging and biodistribution studies were performed only after tumors grew to 5-8 mm in diameter.
(§2) For PET/CT imaging studies, ˜3-4 MBq of the ^68Ga-labeled tracer was injected through the tail vein. Mice were allowed to recover and roam freely in the cages after injecting the tracer. At 45 min post-injection (p.i.), mice were sedated again and positioned on the scanner. First, a 10 min CT scan was conducted for localization and attenuation correction for reconstruction of PET images, before a 10 min PET image was acquired. Heating pads were used during the entire procedure to keep the mice warm. For ex vivo biodistribution studies, mice were injected with ˜1.5-3 MBq of the ^68Ga-labeled tracer. At 1 h p.i., mice were euthanized, blood was drawn from heart, and organs/tissues of interest were collected, rinsed with PBS, blotted dry, weighed, and counted using an automated gamma counter. The uptake in each organ/tissue was normalized to the injected dose and expressed as the percentage of the injected dose per gram of tissue (% ID/g).
(§3) All imaging and biodistribution studies were performed using male NOD.Cg-Rag1tm1Mom II2rgtm1WjI/SzJ (NRG) mice and conducted according to the guidelines established by the Canadian Council on Animal Care and approved by Animal Ethics Committee of the University of British Columbia. For tumor inoculations, mice were anesthetized by inhalation with 2% isoflurane in oxygen and implanted subcutaneously with 5×10^6 PC-3 cells below the left shoulder. Imaging and biodistribution studies were performed only after tumors grew to 5-8 mm in diameter.
(§4) For PET/CT imaging studies, ˜5 MBq of the ^68Ga-labeled tracer was injected through the tail vein. Mice were allowed to recover and roam freely in the cages after injecting the tracer. At 45 min post-injection (p.i.), mice were sedated again and positioned on the scanner. First, a 10 min CT scan was conducted for localization and attenuation correction for reconstruction of PET images, before a 10 min PET image was acquired. Heating pads were used during the entire procedure to keep the mice warm. For ex vivo biodistribution studies, mice were injected with ˜3 MBq of the 68Ga-labeled tracer. At 1 h p.i., mice were euthanized, blood was drawn from heart, and organs/tissues of interest were collected, rinsed with PBS, blotted dry, weighed, and counted using an automated gamma counter.

[2] = in vivo; settings: male, NRG, mouse, iv, total radioactivity
Procedure: as §1, §2, §3, §4

[3] = PC-3 tumor, Biodistribution PC3 tumor Mean
[4] = adrenal, Biodistribution Adrenal Mean
[5] = bone, Biodistribution Bone Mean
[6] = brain, Biodistribution Brain Mean
[7] = heart, Biodistribution Heart Mean
[8] = kidneys, Biodistribution Kidneys Mean
[9] = liver, Biodistribution Liver Mean
[10] = lungs, Biodistribution Lungs Mean
[11] = muscle, Biodistribution Muscle Mean
[12] = pancreas, Biodistribution Pancreas Mean
[13] = seminal, Biodistribution Seminal Mean
[14] = small intestine, Biodistribution Small Intestine Mean
[15] = spleen, Biodistribution Spleen Mean
[16] = stomach, Biodistribution Stomach Mean
[17] = testes, Biodistribution Testes Mean
[18] = whole blood, Biodistribution Blood Mean
[19] = large intestine, Biodistribution Large Intestine Mean
[20] = Biodistribution Large Intestine Mean
[21] = Biodistribution Small Intestine Mean

SMILES	tissue uptake at 1 h [1, 13]	tissue uptake at 1 h [1, 3]	tissue uptake at 1 h [1, 4]	tissue uptake at 1 h [1, 5]	tissue uptake at 1 h [1, 6]	tissue uptake at 1 h ([1]; fat, Biodistribution Fat Mean)	tissue uptake at 1 h [1, 7]	tissue uptake at 1 h [1, 8]	tissue uptake at 1 h [1, 9]	tissue uptake at 1 h [1, 10]	tissue uptake at 1 h [1, 11]	tissue uptake at 1 h [1, 12]	tissue uptake at 1 h [1, 14]	tissue uptake at 1 h [1, 15]	tissue uptake at 1 h [1, 16]	tissue uptake at 1 h [1, 17]	tissue uptake at 1 h [1, 18]	tissue uptake at 1 h [1, 19]	also measured
CC(C)C[C@H](NC(=O)[C@H](Cc1c[nH]cn1)NC(=O)CNC(=O)[C@@H](NC(=O)[C@H](C)NC(=O)[C@H](Cc1c[nH]c2ccccc12)NC(=O)[C@H](CCC(N)=O)NC(=O)[C@@H](Cc1ccccc1)NC(=O)CN1CCC(NC(=O)CN2CCN(CC(=O)O)CCN(CC(=O)O)CCN(CC(=O)O)CC2)CC1)C(C)C)C(=O)N1CSC[C@H]1C(N)=O [^68Ga-LW01025, metal not drawn]	0.06 %ID/g	6.2 %ID/g	0.54 %ID/g	0.24 %ID/g	0.03 %ID/g	0.09 %ID/g	0.13 %ID/g	2.37 %ID/g	0.29 %ID/g	0.34 %ID/g	0.13 %ID/g	1.28 %ID/g	0.56 %ID/g	0.23 %ID/g	0.54 %ID/g	0.16 %ID/g	0.34 %ID/g	–	–
CC(C)C[C@H](NC(=O)[C@H](Cc1c[nH]cn1)NC(=O)CNC(=O)[C@@H](NC(=O)[C@H](C)NC(=O)[C@H](Cc1c[nH]c2ccccc12)NC(=O)[C@H](CCC(N)=O)NC(=O)[C@@H](Cc1ccc2ccccc2c1)NC(=O)CN1CCC(NC(=O)CN2CCN(CC(=O)O)CCN(CC(=O)O)CCN(CC(=O)O)CC2)CC1)C(C)C)C(=O)N1CSC[C@H]1C(N)=O [^68Ga-LW01029, metal not drawn]	0.13 %ID/g	4.7 %ID/g	0.82 %ID/g	0.19 %ID/g	0.04 %ID/g	0.18 %ID/g	0.36 %ID/g	4.73 %ID/g	0.63 %ID/g	1.82 %ID/g	0.23 %ID/g	2.56 %ID/g	1.05 %ID/g	0.45 %ID/g	0.77 %ID/g	0.33 %ID/g	1.08 %ID/g	0.96 %ID/g	–
CC(C)C[C@@H](CN1CSC[C@H]1C(N)=O)NC(=O)[C@H](Cc1c[nH]cn1)NC(=O)CNC(=O)[C@@H](NC(=O)[C@H](C)NC(=O)[C@H](Cc1c[nH]c2ccccc12)NC(=O)[C@H](CCC(N)=O)NC(=O)[C@@H](Cc1ccc2ccccc2c1)NC(=O)CN1CCC(NC(=O)CN2CCN(CC(=O)O)CCN(CC(=O)O)CCN(CC(=O)O)CC2)CC1)C(C)C [^68Ga-LW01059, metal not drawn]	–	6.84 %ID/g	1.81 %ID/g	0.42 %ID/g	0.06 %ID/g	0.19 %ID/g	0.66 %ID/g	4.49 %ID/g	21.5 %ID/g	3.05 %ID/g	0.28 %ID/g	7.26 %ID/g	2.15 %ID/g	0.68 %ID/g	1.1 %ID/g	0.33 %ID/g	2.16 %ID/g	0.66 %ID/g	–
CC(C)C[C@@H](CN1CSC[C@H]1C(N)=O)NC(=O)[C@H](Cc1c[nH]cn1)NC(=O)CNC(=O)[C@@H](NC(=O)[C@H](C)NC(=O)[C@H](Cc1c[nH]c2ccccc12)NC(=O)[C@H](Cc1c[nH]cn1)NC(=O)[C@@H](Cc1ccccc1)NC(=O)CN1CCC(NC(=O)CN2CCN(CC(=O)O)CCN(CC(=O)O)CCN(CC(=O)O)CC2)CC1)C(C)C [^68Ga-LW01102, metal not drawn] ({DOTA}-[X1][dF]HWAVGH-{Leuψ(CH2N)ThzNH2})	0.23 %ID/g	7.46 %ID/g	1.36 %ID/g	0.13 %ID/g	0.04 %ID/g	0.09 %ID/g	0.36 %ID/g	6.3 %ID/g	3.22 %ID/g	1.55 %ID/g	0.18 %ID/g	13.1 %ID/g	2.85 %ID/g	0.52 %ID/g	1.23 %ID/g	0.33 %ID/g	1.13 %ID/g	1.25 %ID/g	–

The next lines start with results.

tissue uptake at 1 h [1, 13]	SMILES	tissue uptake at 1 h [1, 3]	tissue uptake at 1 h [1, 4]	tissue uptake at 1 h [1, 5]	tissue uptake at 1 h [1, 6]	tissue uptake at 1 h ([1]; fat, Biodistribution Fat Mean)	tissue uptake at 1 h [1, 7]	tissue uptake at 1 h [1, 8]	tissue uptake at 1 h [1, 9]	tissue uptake at 1 h [1, 10]	tissue uptake at 1 h [1, 11]	tissue uptake at 1 h [1, 12]	tissue uptake at 1 h [1, 14]	tissue uptake at 1 h [1, 15]	tissue uptake at 1 h [1, 16]	tissue uptake at 1 h [1, 17]	tissue uptake at 1 h [1, 18]	tissue uptake at 1 h [1, 19]	also measured
0.04 %ID/g	CC(C)C[C@H](NC(=O)[C@H](Cc1c[nH]cn1)N(C)C(=O)CNC(=O)[C@@H](NC(=O)[C@H](C)NC(=O)[C@H](Cc1c[nH]c2ccccc12)NC(=O)[C@H](CCC(N)=O)NC(=O)[C@@H](Cc1ccccc1)NC(=O)CN1CCC(NC(=O)CN2CCN(CC(=O)O)CCN(CC(=O)O)CCN(CC(=O)O)CC2)CC1)C(C)C)C(=O)N1CSC[C@H]1C(N)=O [^68Ga-LW01107, metal not drawn]	–	0.32 %ID/g	–	–	–	–	–	–	–	0.07 %ID/g	–	–	–	–	–	–	–	tissue uptake at 1 h ([2]; Biodistribution Blood Mean): 0.3 %ID/g; tissue uptake at 1 h ([2]; Biodistribution Bone Mean): 0.06 %ID/g; tissue uptake at 1 h ([2]; Biodistribution Brain Mean): 0.01 %ID/g; tissue uptake at 1 h ([2]; Biodistribution Fat Mean): 0.05 %ID/g; tissue uptake at 1 h ([2]; Biodistribution Heart Mean): 0.11 %ID/g; tissue uptake at 1 h ([2]; Biodistribution Kidneys Mean): 1.88 %ID/g; tissue uptake at 1 h [2, 20]: 0.18 %ID/g; tissue uptake at 1 h ([2]; Biodistribution Liver Mean): 0.32 %ID/g; tissue uptake at 1 h ([2]; Biodistribution Lungs Mean): 0.28 %ID/g; tissue uptake at 1 h ([2]; Biodistribution PC3 tumor Mean): 7.05 %ID/g; tissue uptake at 1 h ([2]; Biodistribution Pancreas Mean): 0.39 %ID/g; tissue uptake at 1 h [2, 21]: 0.31 %ID/g; tissue uptake at 1 h ([2]; Biodistribution Spleen Mean): 0.13 %ID/g; tissue uptake at 1 h ([2]; Biodistribution Stomach Mean): 0.07 %ID/g; tissue uptake at 1 h ([2]; Biodistribution Testes Mean): 0.1 %ID/g
0.11 %ID/g	CC(C)C[C@H](NC(=O)[C@H](Cc1c[nH]cn1)NC(=O)CNC(=O)[C@@H](NC(=O)[C@H](C)NC(=O)[C@H](Cc1c[nH]c2ccccc12)NC(=O)[C@H](CCC(N)=O)NC(=O)[C@@H](Cc1ccccc1)NC(=O)CN1CCC(NC(=O)CN2CCN(CC(=O)O)CCN(CC(=O)O)CCN(CC(=O)O)CC2)CC1)C(C)(C)C)C(=O)N1CSC[C@H]1C(N)=O [^68Ga-LW01108, metal not drawn]	–	–	–	–	–	–	–	–	–	–	–	–	–	–	–	–	–	tissue uptake at 1 h ([2]; Biodistribution Adrenal Mean): 1.51 %ID/g; tissue uptake at 1 h ([2]; Biodistribution Blood Mean): 0.59 %ID/g; tissue uptake at 1 h ([2]; Biodistribution Bone Mean): 0.15 %ID/g; tissue uptake at 1 h ([2]; Biodistribution Brain Mean): 0.02 %ID/g; tissue uptake at 1 h ([2]; Biodistribution Fat Mean): 0.06 %ID/g; tissue uptake at 1 h ([2]; Biodistribution Heart Mean): 0.18 %ID/g; tissue uptake at 1 h ([2]; Biodistribution Kidneys Mean): 2.47 %ID/g; tissue uptake at 1 h [2, 20]: 1.31 %ID/g; tissue uptake at 1 h ([2]; Biodistribution Liver Mean): 0.35 %ID/g; tissue uptake at 1 h ([2]; Biodistribution Lungs Mean): 0.49 %ID/g; tissue uptake at 1 h ([2]; Biodistribution Muscle Mean): 0.17 %ID/g; tissue uptake at 1 h ([2]; Biodistribution PC3 tumor Mean): 5.9 %ID/g; tissue uptake at 1 h ([2]; Biodistribution Pancreas Mean): 9.32 %ID/g; tissue uptake at 1 h [2, 21]: 2.29 %ID/g; tissue uptake at 1 h ([2]; Biodistribution Spleen Mean): 0.4 %ID/g; tissue uptake at 1 h ([2]; Biodistribution Stomach Mean): 0.89 %ID/g; tissue uptake at 1 h ([2]; Biodistribution Testes Mean): 0.16 %ID/g
3.8 %ID/g	CC(C)C[C@@H](CN1CCC[C@H]1C(N)=O)NC(=O)[C@H](Cc1c[nH]cn1)NC(=O)CN(C)C(=O)[C@@H](NC(=O)[C@H](C)NC(=O)[C@H](Cc1c[nH]c2ccccc12)NC(=O)[C@H](CCC(N)=O)NC(=O)[C@@H](Cc1ccccc1)NC(=O)CN1CCC(NC(=O)CN2CCN(CC(=O)O)CCN(CC(=O)O)CCN(CC(=O)O)CC2)CC1)C(C)C [^68Ga-LW02045, metal not drawn]	12.4 %ID/g	0.44 %ID/g	0.07 %ID/g	0.02 %ID/g	0.03 %ID/g	0.14 %ID/g	2.54 %ID/g	0.37 %ID/g	1.08 %ID/g	0.1 %ID/g	1.37 %ID/g	0.48 %ID/g	0.18 %ID/g	0.35 %ID/g	0.12 %ID/g	0.43 %ID/g	0.34 %ID/g	–
